In patent US5334593A, “Anxiolytic drugs” (Yamasa Shoyu Kabushiki Kaisha, priority 1990, dated 1994):

Experiments:
[1] = test system: male ICR mice; assay: Anti-conflict activity (Vogel type conflict test); format: in vivo, mouse (ICR); settings: for number of water-drinking: 10 minutes
Description: The method is described below.
Male ICR mice (6 weeks old) were deprived of water for one day before the test. The mice were then individually placed in the test box, and given water ad libitum for 10 minutes. Thereafter, they were placed back in their home cages, given water ad libitum overnight, and again deprived of water for two days. The mice thus treated were used for the measurement.
ABU, the test compound, was suspended in physiological saline containing 0.5% CMC, and the suspension was administered intraperitoneally to the above mice. .On the other hand, as a positive control compound, DZP was administered in the same manner. Fifteen minutes after the administration,the mice were placed in the test box, and allowed to freely drink one count of water (one drop: approximately 40 ul ). Thereafter, a 50 V electric foot shock was given from the grid floor to the mice every time they drunk one count of water. Under such conditions, the number of water-drinking was counted over a period of 10 minutes. The number of water-drinking performed by a group of mice to which the test compound was administered was compared with that of water-drinking performed by a group of mice to which a vehicle (physiological saline containing 0.5% CMC and no test compound) was administered.
The significant difference was ascertained by the Mann-Whitney's U-test.

[2] = test system: male Wistar rats; assay: Anti-conflict activity (Geller type conflict test); format: in vivo, rat (Wistar); settings: for number of lever pressing during the alarm periods / number of lever pressing during the safety periods: one hour, vs control; for minimal effective dose: Rattus norvegicus, oral, from results of Test Example 1, read-out: Minimum Effective Dose for Anti-Conflict Activity [B]
Description: The activities of the test compounds were evaluated by the Geller type conflict test which is frequently employed as a preclinical evaluation method of an anxiolytic drug [see Psychophamacologia, 1, 482-492 (1960 )]. The method is described below.
1-Amino--5--chlorouracil (ACU) , 1-amino-5-bromouracil (ABU) and 1-amino-5-fluorouracil (AFU) were used as the test compounds. These compounds were respectively suspended in distilled water containing 0 . 5% carboxymethyl cellulose (CMC) to obtain suspensions suitable for oral administration. In addition, diazepam (DZP) serving as a positive control compound was also prepared as a suspension suitable for oral administration in the same manner.
A skinner box (manufactured by OHARA & Co. , Ltd. ) used for the test was equipped with a lever, a light and a buzzer, and its floor was a grid made of stainless steel. When the lever was pressed, pellets (food) were supplied from a feeder, and, if necessary, an electric shock was given from the floor.
Male Wistar rats were deprived of food during the night to restrain an increase in the body weight, and a training of the animals was started. After the number of lever pressing performed by the rats reached the predetermined level by following a reinforcement schedule in which food pellets were supplied once every ten times of lever pressing (FR-10) , two periods, that is, a 7-minute safety period and a 3-minute alarm period were alternately incorporated in the schedule - During the alarm period, the rats were signaled by the light and buzzer, and further by an electric shock given from the floor every time they were supplied with food pellets. Those rats which were trained to press the lever 19 times or less during the alarm period were used for the measurement. Immediately after a suspension of a test compound prepared in the above-described manner was administered orally to the rats, they were placed in the skinner box, and the numbers of lever pressing were counted over a period of one hour. The numbers thus obtained were compared with those obtained by the control wherein distilled water containing 0.5% CMC and no test compound was orally administered to the rats and the number of lever pressing was counted for one hour. The significant difference was ascertained by the Wilcoxoh's signed rank test. The results are shown in FIG. 1A, FIG. 1B, FIG. 1C, FIG. 2A and FIG. 2B.
To the rats used for the above test, no drugs were administered for one week, and then they were repeatedly used for the same test.
Further, the minimum effective dose (B) for anti-conflict activity of each of the above-described test compounds was determined on the basis of the results obtained in Test Example 1.

[3] = Acute toxicity (oral administration); settings: mouse, in vivo, male ICR mice, Litchfield-Wilcoxon method
Description: The acute toxicity (LD50 value) per oral administration was determined by the following method.
The test compound (1-amino-5-bromouracil (ABU) or 1-amino-5-chlorouracil (ACU) was suspended in distilled water containing 0.5% carboxymethyl cellulose (CMC). ABU or ACU was administered orally to male ICR mice (1 group: 10 mice) in a dose of 1000-2800 mg/kg or 500-1400 mg/kg, and the LD50 values were determined according to the Litchfield-Wilcoxon method. The results are shown in Table 2.

[4] = in vivo; settings: mouse, in vivo, po
Description: (§1) The muscle relaxant activities of the test compounds, 1-amino-5-bromouracil(ABU), 1-amino--5-chlorouracil (ACU) and diazepam (DZP), were determined in accordance with the method of L. L. Coughenour et al. [see Pharmacol. Biochem. & Behav., 6, 351-353 (1977)].
(§2) Male ICR mice were placed on a 13 cm×13 cm No. 4 wire screen, and the screen was then rotated by 180 degrees. Those mice which were able to return to the screen within one minute were referred to "successful" mice. The suspension of each test compound prepared in the same manner as in Test Example 1 was administered orally to the mice. The mice were then subjected to the above test. The dose of the test compound at which 50% of the mice successfully returned to the screen was determined as ED50 (A).
(§3) Furthermore, the validity of each of the test compounds as an anxiolytic drug was expressed as A/B value.

[5] = test system: male ICR mice; assay: Muscle relaxant activity (rotated wire screen test); settings: muscle relaxant ED50 / minimum effective dose for anti-conflict activity
Description: as §1, §2, §3

[6] = test system: ICR mice; assay: Acute toxicity (intraperitoneal administration); format: in vivo, mouse (ICR); settings: one week
Description: 1-Amino-5-bromouracil (ABU) was suspended in physiological saline containing 0.5% carboxymethyl cellulose (CMC). ABU was administered intraperitoneally to 8 ICR mice in a dose of 500 mg/kg, and their lethality was observed over a period of one week.
Further, 1-amino-5-chlorouracil (ACU) was administered intraperitoneally to 10 male ICR mice in a dose of 357 mg/kg, and their lethality was observed over a period of one week.

[7] = cited from earlier work

| SMILES | number of lever pressing during the alarm periods ([2]; 10 mg/kg oral) | number of lever pressing during the alarm periods ([2]; 30 mg/kg oral) | number of lever pressing during the safety periods ([2]; 30 mg/kg oral) | number of lever pressing during the safety periods ([2]; 50 mg/kg oral) | minimal effective dose [2] [mg/kg] | LD50 [3] [mg/kg] | ED50 [4] [mg/kg] | Validity [A/B] [5] | number of lever pressing during the alarm periods ([2]; 20 mg/kg oral) | number of lever pressing during the safety periods ([2]; 20 mg/kg oral) | other results |
| --- | --- | --- | --- | --- | --- | --- | --- | --- | --- | --- | --- |
| Nn1cc(Br)c(=O)[nH]c1=O [ABU, 1-amino-5-bromouracil] | significantly increased | significantly increased | did not significantly change | did not significantly change | 10 | 1920 | 74.1 | 7.4 | – | – | sensitivity to an electric shock ([1]; 20 mg/kg i.p.): no decrease in the sensitivity to an electric shock was noted; number of water-drinking ([1]; ABU 5, 10, 20 and 50 mg/kg i.p., significant only at 20 mg/kg): a significant increase in the number of water-drinking was noted only at the dose of 20 mg/kg; number of lever pressing during the safety periods ([2]; 10 mg/kg oral): did not significantly change; number of lever pressing during the alarm periods ([2]; 50 mg/kg oral): significantly increased; lethality ([6]; 500 mg/kg i.p., 8 ICR mice): no death was observed |
| Nn1cc(Cl)c(=O)[nH]c1=O [ACU, 1-Amino--5--chlorouracil] | – | significantly increased | did not significantly change | – | 20 | 971 | 46 | 2.3 | significantly increased | did not significantly change | lethality ([6]; 357 mg/kg i.p., 10 male ICR mice): no death was observed |
| Nn1cc(F)c(=O)[nH]c1=O [AFU, 1-amino-5-fluorouracil] | – | – | – | – | – | – | – | – | significantly increased | did not significantly change | – |
| CN1C(=O)CN=C(c2ccccc2)c2cc(Cl)ccc21 [DZP, diazepam, reference compound] | significantly increased | – | – | significantly decreased | 5 | – | 8.8 | 1.8 | significantly increased | significantly decreased | behaviors of the mice when receiving an electric shock ([1]; 2 mg/kg i.p.): lack of both vocalization and escape behavior; sensitivity of the mice to an electric shock ([1]; 2 mg/kg i.p.): decreased; number of water-drinking ([1]; 2 mg/kg i.p.): significantly increased; number of lever pressing during the alarm periods ([2]; 5 mg/kg oral): significantly increased |
| CCC(C)n1c(=O)[nH]c(C)c(Br)c1=O (stereo not shown) [bromacil] | – | – | – | – | – | – | – | – | – | – | minimum effective dose for single administration ([7]; oral, single administration): 100 mg/kg; anxiolytic activity ([7]; orally administered): low anxiolytic activity |
